According to US20230101743A1, “SUBSTITUTED TRIAZINE COMPOUNDS AND USES THEREOF” (MUSC FOUNDATION FOR RESEARCH DEVELOPMENT, priority 2020, published 2023):

Experiments:
[1] = Solubilities in water and 1 x PBS buffer (UV-vis); assay type: physicochemical; details: 25° C.
Protocol: The molar extinction co-efficients of exemplary cholesterol lowering compounds were measured in 1 x PBS buffer. The compounds were first dissolved in dimethyl sulfoxide. Solutions with a 0.5 mg/ml concentration were then prepared in DMSO. These solutions were diluted further with 1 x PBS by 100-fold, resulting in solutions with a 5 ug/ml concentration. The resulted diluted solutions were then measured and scanned using a UV-vis spectrophotometer for ultra-violet absorbances between 240 nm to 400 nm, using a UV 96-well microplate. The maximum UV absorbances and corresponding wavelengths were recorded (Table 1). The absorbance values were subtracted by that of a blank, 1 x PBS buffer containing […]. The volume of the solutions for UV measurements was 300 ul and the depth of the solutions was 0.7 cm. The molar extinction co-efficients were then calculated based on formula
The solubilities of the exemplary cholesterol lowering compounds were measured in water and 1 x PBS buffer. The compounds were first stirred with water and 1 x PBS buffer individually at room temperature for 1 h. The suspensions were then centrifuged for 2 min. The top clear solutions were filtered through filter paper, resulting in mother liquids, which were centrifuged again and diluted with 1 x PBS buffer for 10-fold for the solubilities in water and 100-fold the solubilities in 1 x PBS buffer. The resulted solutions were measured using a UV-vis spectrophotometer for UV absorbances with the maximum absorbances. The values were subtracted by that of a blank, 1 x PBS buffer. The corrected absorbances were then used to calculate the corresponding concentrations using the formula (1) and extinction coefficients (Table 1) shown above. The individual concentrations were then used to calculate the solubilities in 1.0 mL of water and 1 x PBS buffer.
The compounds were dissolved in DMSO to either 50 mg/ml, 10 mg/ml or 5 mg/ml solutions, which were diluted to 0.5 mg/ml with DMSO. These solutions were then diluted to 5 ug/ml with 1 x PBS buffer. The resulted solutions were then measured in a UV-vis spectrophotometer for UV scanning from 240 nm to 400 nm at 25° C. The absorbance values were subtracted by that of a blank, 1 x PBS buffer containing DMSO. The total volume of the solutions was 300 uL and the path length for each well was 0.7 cm in a UV 96-well plate. The extinction coefficients of the compounds were then calculated based on molar concentrations and the corrected UV absorbances at the maximum absorption (Table 1).
The mixtures wer stirred for 1 h at room temperature, transferred to 1.5 mL Eppendorf tubes, and centrifuged for 2 min. The clear solutions were filtered through filter papers, affording clear solutions, which were centrifuged again for 2 min. The top clear solutions were diluted by 1 x PBS buffer by 10-fold for the solubilities in water and 100-fold for the solubilities in 1 x PBS buffer. The new clear solutions were then measured individually using a UV-vis spectrophotometer and a UV 96-well microplate. The absorbance values were subtracted by that of a blank, 1 x PBS buffer. Concentrations and solubilities of the compounds were then calculated using their extinct coefficients and the corrected UV absorbances at the maximum absorptions (Table 1).

Intracellular APOB = Intracellular APOB protein by immunoblot; assay type: cell-based, human; details: 2 μg/mL, 24 hours
Protocol: G. Human iPSC-derived hepatocytes were treated with 2 μg/mL of DL-1 or equivalent concentration of DMSO for 24 hours. […] (A) APOB mRNA level was determined using real-time qPCR. (B) Intracellular APOB, LDLR, and HSP90 protein levels were determined via immunoblot. (C) Quantification of biological replicates of immunoblots on samples treated as in (B). Data are shown as mean±SEM of four replicates (n=4).
C. Human iPSC-derived hepatocytes (iPSC-Heps) were treated with 2 μg/mL of DL-1 or equivalent concentration of DMSO for 24 hours. In FIG. 7A, APOB mRNA level was determined using real-time qPCR. In FIG. 7B Intracellular APOB, LDLR, and HSP90 protein levels were determined via immunoblot; Quantification of biological replicates of immunoblots. […] In FIG. 12A LDL uptake assay was performed by pre-treating cells with 2 μg/mL of DL-1, 20 μM of Atorvastatin, and equivalent concentration of DMSO for 24 hours followed by 4 hours of pHrodo-LDL exposure; LDL endocytosis was determined and quantified by fluorescence image; data are shown as mean±SD of triplicates (n=3). […]
Immunoprecipitation of cell lysates was performed using protein G magnet beads (ThermoFisher) and anti-APOB (LDL20/17, Mabtech) antibodies. […] Expression levels were quantified via integrated intensity normalized by 5% of input of each sample. […] Signals were detected using HRP-conjugated secondary antibodies. […]

Hepatic neutral lipid = assay: Neutral lipid staining (BODIPY 493/503) in iPSC-derived hepatocytes; assay type: cell-based, human; details: 72 hours; DL-1 2 μg/mL, CP-346086 20 nM
Protocol: H. Human iPSC derived hepatocytes were treated with DL-1 (2 μg/mL) and MTTP inhibitor CP-346086 (20 nM) for 72 hours. […] (A) Hepatic neutral lipid was determined by staining with 2 μM of BODIPYTM 493/503 for 15 mins and fixed with 4% PFA for microscopy. Nuclei were stained blue by DAPI. Scale bar=100 μm. […] Data are shown as mean±SEM of ten replicates (n=10); ***p<0.001.
K3 iPSC-derived hepatocytes (Day 20) were treated with or without 2 μg/mL of DL-1 or 20 nM of CP-346086 (Sigma) for 72 hours with daily medium change. At the time-point of interest, cells were treated with 2 μM of BODIPY® 493/503 staining solution (ThermoFisher) and 5 μg/mL of Hoechst 33342 (ThermoFisher) in PBS at 37 degrees for 15 minutes. Cells were washed with sterile PBS three times and then fixed with 4% PFA. Fluorescence images were taken using Bio-rad Zoeυ Fluorescent Cell Imager (Bio-Rad) and KEYENCE BZ-X800E Fluorescence Microscope (KEYENCE). Integrated fluorescent intensity was normalized by total cell counts, which is determined by DAPI staining.

Solubility in 1.0 ml PBS buffer ([1]; 1 × PBS buffer): 25 µg
Solubility in 1.0 ml water ([1]; water): 0.37 µg
hepatic lipid accumulation (neutral lipid level) (Hepatic neutral lipid): no impact on hepatic lipid accumulation
Structure (SMILES): Sc1nc(S)nc(Nc2ccc(Nc3ccccc3)cc2)n1 (racemic) [DL-1, 6-{[4-(phenylamino)phenyl]amino}-1,3,5-triazine-2,4-dithiol]
intracellular APOB protein level (Intracellular APOB): no impact on APOB mRNA and intracellular protein levels
